Source: US20260015358A1, “BICYCLIC DERIVATIVES, COMPOSITIONS AND USES THEREOF” (Danatlas Pharmaceuticals Co., Ltd., priority 2023, published 2026)

Assays:
[1] = molecular target: T1, WRN [UniPro: Q14191 (WRN_HUMAN), N500-C946] (Homo sapiens (Human), UniProt Q14191); test: WRN ATPase assay (ADP-Glo); format: biochemical; conditions: WRN enzymatic activity assay
[2] = molecular target: T1, WRN [UniPro: Q14191 (WRN_HUMAN), N500-C946]; test: WRN unwinding assay (FORKF DNA, fluorescence); format: biochemical; conditions: Table 14

T1 sequence (Q14191 500-946): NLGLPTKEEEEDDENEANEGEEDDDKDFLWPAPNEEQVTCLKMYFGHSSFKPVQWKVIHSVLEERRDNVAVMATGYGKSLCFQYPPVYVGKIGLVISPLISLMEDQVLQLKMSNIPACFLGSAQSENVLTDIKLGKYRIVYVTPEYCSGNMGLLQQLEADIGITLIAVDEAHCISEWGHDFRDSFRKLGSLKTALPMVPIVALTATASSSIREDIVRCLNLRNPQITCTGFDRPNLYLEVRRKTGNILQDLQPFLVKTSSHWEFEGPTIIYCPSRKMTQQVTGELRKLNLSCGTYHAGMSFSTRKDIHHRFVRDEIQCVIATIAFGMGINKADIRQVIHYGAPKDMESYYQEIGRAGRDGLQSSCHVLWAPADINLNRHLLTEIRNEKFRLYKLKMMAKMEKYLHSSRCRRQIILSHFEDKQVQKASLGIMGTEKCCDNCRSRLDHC

Structure (SMILES)	IC50 [1]	IC50 [2]
CCc1c(N2CCN(C(=O)c3sc4cccnc4c3N)CC2)c(=O)n2nc(C3=CCOCC3)nc2n1CC(=O)Nc1ccc(C(F)(F)F)cc1Cl [Example 2, 2-(6-(4-(3-Aminothieno[3,2-b]pyridine-2-carbonyl)piperazin-1-yl)-2-(3,6-dihydro-2H-pyran-4-yl)-5-ethyl-7-oxo-[1,2,4]triazolo[1,5-a]pyrimidin-4(7H)-yl)-N-(2-chloro-4-(trifluoromethyl)phenyl)acetamide]	100 to 1000 nM	100 to 1000 nM
CCc1c(N2CCN(C(=O)CNC(=O)c3cccc(NC)c3)CC2)c(=O)n2nc(C3=CCOCC3)nc2n1CC(=O)Nc1ccc(C(F)(F)F)cc1Cl [Example 277, N-(2-(4-(4-(2-((2-Chloro-4-(trifluoromethyl)phenyl)amino)-2-oxoethyl)-2-(3,6-dihydro-2H-pyran-4-yl)-5-ethyl-7-oxo-4,7-dihydro-[1,2,4]triazolo[1,5-a]pyrimidin-6-yl)piperazin-1-yl)-2-oxoethyl)-3-(methylamino)benzamide]	< 100 nM	< 100 nM
CCc1c(N2CCN(C(=O)CNC(=O)c3ncco3)CC2)c(=O)n2nc(C3=CCOCC3)nc2n1CC(=O)Nc1ccc(C(F)(F)F)cc1F [Example 217, N-(2-(4-(2-(3,6-Dihydro-2H-pyran-4-yl)-5-ethyl-4-(2-((2-fluoro-4-(trifluoromethyl)phenyl)amino)-2-oxoethyl)-7-oxo-4,7-dihydro-[1,2,4]triazolo[1,5-a]pyrimidin-6-yl)piperazin-1-yl)-2-oxoethyl)oxazole-2-carboxamide]	< 100 nM	< 100 nM
CCc1c(N2CCN(C(=O)C(=O)Nc3nc(C)co3)CC2)c(=O)n2nc(C3=CCOCC3)nc2n1CC(=O)Nc1ccc(C(F)(F)F)cc1F [Example 355, 2-(4-(2-(3,6-Dihydro-2H-pyran-4-yl)-5-ethyl-4-(2-((2-fluoro-4-(trifluoromethyl)phenyl)amino)-2-oxoethyl)-7-oxo-4,7-dihydro-[1,2,4]triazolo[1,5-a]pyrimidin-6-yl)piperazin-1-yl)-N-(4-methyloxazol-2-yl)-2-oxoacetamide]	< 100 nM	< 100 nM
CCc1c(N2CCN(S(=O)(=O)NC(=O)c3ccccc3)CC2)c(=O)n2nc(C3=CCOCC3)nc2n1CC(=O)Nc1ccc(C(F)(F)F)cc1Cl [Example 194, N-((4-(4-(2-((2-Chloro-4-(trifluoromethyl)phenyl)amino)-2-oxoethyl)-2-(3,6-dihydro-2H-pyran-4-yl)-5-ethyl-7-oxo-4,7-dihydro-[1,2,4]triazolo[1,5-a]pyrimidin-6-yl)piperazin-1-yl)sulfonyl)benzamide]	< 100 nM	< 100 nM
CCc1c(N2CCN(C(=O)CNC(=O)CC3CC3)CC2)c(=O)n2nc(C3=CCOCC3)nc2n1CC(=O)Nc1ccc(C(F)(F)F)cc1Cl [Example 275, N-(2-Chloro-4-(trifluoromethyl)phenyl)-2-(6-(4-((2-cyclopropylacetyl)glycyl)piperazin-1-yl)-2-(3,6-dihydro-2H-pyran-4-yl)-5-ethyl-7-oxo-[1,2,4]triazolo[1,5-a]pyrimidin-4(7H)-yl)acetamide]	< 100 nM	< 100 nM
CCc1c(N2CCN(C(=O)CNC(=O)c3nc(N)ccc3F)CC2)c(=O)n2nc(C3=CCOCC3)nc2n1CC(=O)Nc1ccc(C(F)(F)F)cc1Cl [Example 367, 6-Amino-N-(2-(4-(4-(2-((2-chloro-4-(trifluoromethyl)phenyl)amino)-2-oxoethyl)-2-(3,6-dihydro-2H-pyran-4-yl)-5-ethyl-7-oxo-4,7-dihydro-[1,2,4]triazolo[1,5-a]pyrimidin-6-yl)piperazin-1-yl)-2-oxoethyl)-3-fluoropicolinamide]	< 100 nM	< 100 nM
CCc1c(N2CCN(C(=O)c3nnc(Cl)cc3O)CC2)c(=O)n2nc(C3=CCOCC3)nc2n1CC(=O)Nc1ccc(C(F)(F)F)cc1Cl [Example 83, N-(2-Chloro-4-(trifluoromethyl)phenyl)-2-(6-(4-(6-chloro-4-hydroxypyridazine-3-carbonyl)piperazin-1-yl)-2-(3,6-dihydro-2H-pyran-4-yl)-5-ethyl-7-oxo-[1,2,4]triazolo[1,5-a]pyrimidin-4(7H)-yl)acetamide]	< 100 nM	< 100 nM
CCc1c(N2CCN(C(=O)c3c[nH]c(=O)n(C)c3=O)CC2)c(=O)n2nc(C3=CCOCC3)nc2n1CC(=O)Nc1ccc(C(F)(F)F)cc1Cl [Example 43, N-(2-Chloro-4-(trifluoromethyl)phenyl)-2-(2-(3,6-dihydro-2H-pyran-4-yl)-5-ethyl-6-(4-(3-methyl-2,4-dioxo-1,2,3,4-tetrahydropyrimidine-5-carbonyl)piperazin-1-yl)-7-oxo-[1,2,4]triazolo[1,5-a]pyrimidin-4(7H)-yl)acetamide]	100 to 1000 nM	< 100 nM
CCc1c(N2CCN(C(=O)c3cc4sccc4[nH]c3=O)CC2)c(=O)n2nc(C3=CCOCC3)nc2n1CC(=O)Nc1ccc(C(F)(F)F)cc1Cl [Example 197, N-(2-Chloro-4-(trifluoromethyl)phenyl)-2-(2-(3,6-dihydro-2H-pyran-4-yl)-5-ethyl-7-oxo-6-(4-(5-oxo-4,5-dihydrothieno[3,2-b]pyridine-6-carbonyl)piperazin-1-yl)-[1,2,4]triazolo[1,5-a]pyrimidin-4(7H)-yl)acetamide]	< 100 nM	< 100 nM
CCc1c(N2CCN(C(=O)c3ccnc(=O)[nH]3)CC2)c(=O)n2nc(C3=CCOCC3)nc2n1CC(=O)Nc1ccc(C(F)(F)F)cc1Cl [Example 79, N-(2-Chloro-4-(trifluoromethyl)phenyl)-2-(2-(3,6-dihydro-2H-pyran-4-yl)-5-ethyl-7-oxo-6-(4-(2-oxo-2,3-dihydropyrimidine-4-carbonyl)piperazin-1-yl)-[1,2,4]triazolo[1,5-a]pyrimidin-4(7H)-yl)acetamide]	100 to 1000 nM	< 100 nM
CCc1c(N2CCN(C(=O)c3c(O)nn4c(Cl)cccc34)CC2)c(=O)n2nc(C3=CCOCC3)nc2n1CC(=O)Nc1ccc(C(F)(F)F)cc1Cl [Example 198, 2-(6-(4-(7-Chloro-2-hydroxypyrazolo[1,5-a]pyridine-3-carbonyl)piperazin-1-yl)-2-(3,6-dihydro-2H-pyran-4-yl)-5-ethyl-7-oxo-[1,2,4]triazolo[1,5-a]pyrimidin-4(7H)-yl)-N-(2-chloro-4-(trifluoromethyl)phenyl)acetamide]	< 100 nM	< 100 nM
CCc1c(N2CCN(C(=O)CNC(=O)c3cn(C)[nH]c3=O)CC2)c(=O)n2nc(C3=CCOCC3)nc2n1CC(=O)Nc1ccc(C(F)(F)F)cc1Cl [Example 283, N-(2-(4-(4-(2-((2-Chloro-4-(trifluoromethyl)phenyl)amino)-2-oxoethyl)-2-(3,6-dihydro-2H-pyran-4-yl)-5-ethyl-7-oxo-4,7-dihydro-[1,2,4]triazolo[1,5-a]pyrimidin-6-yl)piperazin-1-yl)-2-oxoethyl)-1-methyl-3-oxo-2,3-dihydro-1H-pyrazole-4-carboxamide]	100 to 1000 nM	< 100 nM
CCc1c(N2CCN(C(=O)CNC(=O)c3ccccc3F)CC2)c(=O)n2nc(N3CCOCC3)cc2n1CC(=O)Nc1ccc(C(F)(F)F)cc1Cl [Example 344, N-(2-(4-(4-(2-((2-chloro-4-(trifluoromethyl)phenyl)amino)-2-oxoethyl)-5-ethyl-2-morpholino-7-oxo-4,7-dihydropyrazolo[1,5-a]pyrimidin-6-yl)piperazin-1-yl)-2-oxoethyl)-2-fluorobenzamide]	100 to 1000 nM	100 to 1000 nM
CCc1c(N2CCN(C(=O)CNC(=O)c3ccccn3)CC2)c(=O)n2nc(C3=CCOCC3)nc2n1CC(=O)Nc1ccc(C(F)(F)F)cc1Cl [Example 95, N-(2-(4-(4-(2-((2-Chloro-4-(trifluoromethyl)phenyl)amino)-2-oxoethyl)-2-(3,6-dihydro-2H-pyran-4-yl)-5-ethyl-7-oxo-4,7-dihydro-[1,2,4]triazolo[1,5-a]pyrimidin-6-yl)piperazin-1-yl)-2-oxoethyl)picolinamide]	< 100 nM	< 100 nM
CCc1c(N2CCN(C(=O)C(=O)Nc3cncs3)CC2)c(=O)n2nc(C3=CCOCC3)nc2n1CC(=O)Nc1ccc(C(F)(F)F)cc1Cl [Example 334, 2-(4-(4-(2-((2-Chloro-4-(trifluoromethyl)phenyl)amino)-2-oxoethyl)-2-(3,6-dihydro-2H-pyran-4-yl)-5-ethyl-7-oxo-4,7-dihydro-[1,2,4]triazolo[1,5-a]pyrimidin-6-yl)piperazin-1-yl)-2-oxo-N-(thiazol-5-yl)acetamide]	< 100 nM	< 100 nM
CCc1c(N2CCN(C(=O)CNC(=O)c3ccon3)CC2)c(=O)n2nc(C3=CCOCC3)nc2n1CC(=O)Nc1ccc(C(F)(F)F)cc1Cl [Example 371, N-(2-(4-(4-(2-((2-Chloro-4-(trifluoromethyl)phenyl)amino)-2-oxoethyl)-2-(3,6-dihydro-2H-pyran-4-yl)-5-ethyl-7-oxo-4,7-dihydro-[1,2,4]triazolo[1,5-a]pyrimidin-6-yl)piperazin-1-yl)-2-oxoethyl) isoxazole-3-carboxamide]	< 100 nM	< 100 nM
CCc1c(N2CCN(C(=O)CNC(=O)Nc3cc(F)ccc3F)CC2)c(=O)n2nc(C3=CCOCC3)nc2n1CC(=O)Nc1ccc(C(F)(F)F)cc1Cl [Example 186, N-(2-Chloro-4-(trifluoromethyl)phenyl)-2-(6-(4-(((2,5-difluorophenyl)carbamoyl)glycyl)piperazin-1-yl)-2-(3,6-dihydro-2H-pyran-4-yl)-5-ethyl-7-oxo-[1,2,4]triazolo[1,5-a]pyrimidin-4(7H)-yl)acetamide]	< 100 nM	< 100 nM
CCc1c(N2CCN(C(=O)CNC(=O)NCC3CC3)CC2)c(=O)n2nc(C3=CCOCC3)nc2n1CC(=O)Nc1ccc(C(F)(F)F)cc1Cl [Example 190, N-(2-Chloro-4-(trifluoromethyl)phenyl)-2-(6-(4-(((cyclopropylmethyl)carbamoyl)glycyl)piperazin-1-yl)-2-(3,6-dihydro-2H-pyran-4-yl)-5-ethyl-7-oxo-[1,2,4]triazolo[1,5-a]pyrimidin-4(7H)-yl)acetamide]	< 100 nM	< 100 nM
